Laboratory results: publication PMC9030254, “Target Hopping from Protein Kinases to PXR: Identification of Small-Molecule Protein Kinase Inhibitors as Selective Modulators of Pregnane X Receptor from TüKIC Library” (Cells, 2022)

What was measured:
Assay in all cases: Kinase profiling
Type in all cases: biochemical
CDK8/CycC = molecular target: T1, CDK8/CycC (Homo sapiens, UniProt P49336)
T1 construct: purchased ProQinase (Freiburg, Germany)
Protocol: (§1) The analysis was performed by ProQinase (Freiburg, Germany).

MET = molecular target: T2, MET (Homo sapiens, UniProt P08581)
T2 construct: purchased ProQinase (Freiburg, Germany)
Protocol: as §1

PKCbeta1 = molecular target: T3, PKCbeta1 (Homo sapiens, UniProt P05771)
T3 construct: purchased ProQinase (Freiburg, Germany)
Protocol: as §1

BMX = molecular target: T4, BMX (Homo sapiens, UniProt P51813)
T4 construct: purchased ProQinase (Freiburg, Germany)
T4 sequence (P51813 1-675): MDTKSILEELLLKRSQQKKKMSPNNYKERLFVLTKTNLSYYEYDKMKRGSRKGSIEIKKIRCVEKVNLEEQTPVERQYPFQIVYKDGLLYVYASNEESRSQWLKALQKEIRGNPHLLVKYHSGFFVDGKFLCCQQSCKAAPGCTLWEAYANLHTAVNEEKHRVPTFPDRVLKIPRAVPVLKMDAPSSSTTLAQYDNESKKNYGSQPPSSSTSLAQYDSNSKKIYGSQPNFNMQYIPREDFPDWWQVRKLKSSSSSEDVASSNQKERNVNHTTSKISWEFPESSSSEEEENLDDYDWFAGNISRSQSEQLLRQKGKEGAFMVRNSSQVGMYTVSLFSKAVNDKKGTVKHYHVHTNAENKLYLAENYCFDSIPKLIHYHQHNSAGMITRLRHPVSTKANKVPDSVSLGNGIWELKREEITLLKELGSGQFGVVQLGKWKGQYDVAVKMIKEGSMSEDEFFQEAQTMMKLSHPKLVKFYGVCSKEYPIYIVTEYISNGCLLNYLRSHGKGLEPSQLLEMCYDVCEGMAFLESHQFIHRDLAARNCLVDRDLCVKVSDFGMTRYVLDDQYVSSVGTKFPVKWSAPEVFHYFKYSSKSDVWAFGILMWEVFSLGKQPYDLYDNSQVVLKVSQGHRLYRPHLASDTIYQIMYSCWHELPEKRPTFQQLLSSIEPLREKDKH
Protocol: as §1

TBK1 = molecular target: T5, TBK1 (Homo sapiens, UniProt Q9UHD2)
T5 construct: purchased ProQinase (Freiburg, Germany)
T5 sequence (Q9UHD2 1-729): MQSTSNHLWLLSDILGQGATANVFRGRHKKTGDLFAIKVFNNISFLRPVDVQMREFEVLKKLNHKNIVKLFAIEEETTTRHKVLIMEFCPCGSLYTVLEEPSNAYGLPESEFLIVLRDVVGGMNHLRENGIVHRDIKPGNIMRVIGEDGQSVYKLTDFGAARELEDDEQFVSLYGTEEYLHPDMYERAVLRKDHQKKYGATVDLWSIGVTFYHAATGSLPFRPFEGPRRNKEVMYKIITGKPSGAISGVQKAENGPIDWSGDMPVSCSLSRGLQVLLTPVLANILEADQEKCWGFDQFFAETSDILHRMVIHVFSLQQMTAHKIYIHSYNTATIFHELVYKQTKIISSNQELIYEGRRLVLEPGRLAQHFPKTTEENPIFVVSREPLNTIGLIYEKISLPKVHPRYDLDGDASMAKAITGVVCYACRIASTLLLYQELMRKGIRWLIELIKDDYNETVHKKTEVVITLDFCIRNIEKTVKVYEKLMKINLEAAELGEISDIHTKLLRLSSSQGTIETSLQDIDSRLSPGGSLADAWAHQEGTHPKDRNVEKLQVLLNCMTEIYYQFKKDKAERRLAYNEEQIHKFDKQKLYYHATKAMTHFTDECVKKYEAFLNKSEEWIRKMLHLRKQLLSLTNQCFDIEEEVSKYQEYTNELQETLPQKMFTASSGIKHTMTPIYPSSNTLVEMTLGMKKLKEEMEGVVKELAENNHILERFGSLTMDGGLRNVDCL
Protocol: as §1

WNK3 = molecular target: T6, WNK3 (Homo sapiens, UniProt Q9BYP7)
T6 construct: purchased ProQinase (Freiburg, Germany)
T6 sequence (Q9BYP7 whole entry): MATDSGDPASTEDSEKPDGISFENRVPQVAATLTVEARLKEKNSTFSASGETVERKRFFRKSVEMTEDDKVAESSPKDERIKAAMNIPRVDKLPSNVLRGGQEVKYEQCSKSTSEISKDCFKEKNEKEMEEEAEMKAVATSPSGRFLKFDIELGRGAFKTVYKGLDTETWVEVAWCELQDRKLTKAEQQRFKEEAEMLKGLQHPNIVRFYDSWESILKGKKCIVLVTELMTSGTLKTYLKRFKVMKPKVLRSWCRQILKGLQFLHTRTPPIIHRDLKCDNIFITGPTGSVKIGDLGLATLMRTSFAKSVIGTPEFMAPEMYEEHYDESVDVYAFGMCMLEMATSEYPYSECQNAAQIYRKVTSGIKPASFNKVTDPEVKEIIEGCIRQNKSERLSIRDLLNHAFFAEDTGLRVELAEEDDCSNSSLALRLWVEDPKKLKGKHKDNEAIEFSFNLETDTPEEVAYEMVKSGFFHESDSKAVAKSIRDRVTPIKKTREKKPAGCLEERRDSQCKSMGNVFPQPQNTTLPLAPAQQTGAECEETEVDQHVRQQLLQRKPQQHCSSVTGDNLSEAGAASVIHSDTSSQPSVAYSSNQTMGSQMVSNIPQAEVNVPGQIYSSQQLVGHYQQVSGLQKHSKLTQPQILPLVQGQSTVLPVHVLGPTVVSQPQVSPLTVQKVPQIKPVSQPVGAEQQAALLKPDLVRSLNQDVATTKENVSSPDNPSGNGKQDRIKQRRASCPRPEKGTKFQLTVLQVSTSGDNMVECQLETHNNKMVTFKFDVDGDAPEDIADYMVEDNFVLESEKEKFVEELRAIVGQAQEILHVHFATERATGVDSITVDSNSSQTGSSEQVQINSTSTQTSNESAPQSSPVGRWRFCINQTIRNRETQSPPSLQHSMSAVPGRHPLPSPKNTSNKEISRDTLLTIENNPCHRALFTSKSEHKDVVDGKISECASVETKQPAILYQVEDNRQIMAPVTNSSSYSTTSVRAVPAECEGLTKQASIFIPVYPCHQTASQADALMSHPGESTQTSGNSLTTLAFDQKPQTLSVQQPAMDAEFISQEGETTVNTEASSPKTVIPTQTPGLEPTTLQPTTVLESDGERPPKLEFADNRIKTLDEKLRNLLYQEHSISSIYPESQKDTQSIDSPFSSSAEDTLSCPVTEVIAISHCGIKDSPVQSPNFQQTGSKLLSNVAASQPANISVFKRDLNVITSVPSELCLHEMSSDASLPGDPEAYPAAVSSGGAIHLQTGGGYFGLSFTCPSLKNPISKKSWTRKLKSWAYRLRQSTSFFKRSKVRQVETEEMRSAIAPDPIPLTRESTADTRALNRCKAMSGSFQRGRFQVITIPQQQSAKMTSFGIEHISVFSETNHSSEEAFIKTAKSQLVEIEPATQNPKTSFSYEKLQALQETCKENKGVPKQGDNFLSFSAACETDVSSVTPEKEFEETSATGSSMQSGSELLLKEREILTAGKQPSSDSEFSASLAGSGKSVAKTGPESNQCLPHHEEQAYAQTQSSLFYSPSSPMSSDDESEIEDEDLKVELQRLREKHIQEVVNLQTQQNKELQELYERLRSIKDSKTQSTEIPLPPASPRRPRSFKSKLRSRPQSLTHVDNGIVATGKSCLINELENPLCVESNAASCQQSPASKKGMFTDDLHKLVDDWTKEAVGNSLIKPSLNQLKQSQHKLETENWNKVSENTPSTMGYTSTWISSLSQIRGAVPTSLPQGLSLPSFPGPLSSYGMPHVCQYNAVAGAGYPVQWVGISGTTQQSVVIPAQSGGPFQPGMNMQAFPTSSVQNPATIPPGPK
Protocol: as §1

SRPK1 = molecular target: T7, SRPK1 (Homo sapiens, UniProt Q96SB4)
T7 construct: purchased ProQinase (Freiburg, Germany)
Protocol: as §1

PKMzeta = molecular target: T8, PKMzeta (Homo sapiens, UniProt Q05513)
T8 construct: PKMzeta; purchased ProQinase (Freiburg, Germany)
T8 sequence (Q05513 184-592 limits assumed): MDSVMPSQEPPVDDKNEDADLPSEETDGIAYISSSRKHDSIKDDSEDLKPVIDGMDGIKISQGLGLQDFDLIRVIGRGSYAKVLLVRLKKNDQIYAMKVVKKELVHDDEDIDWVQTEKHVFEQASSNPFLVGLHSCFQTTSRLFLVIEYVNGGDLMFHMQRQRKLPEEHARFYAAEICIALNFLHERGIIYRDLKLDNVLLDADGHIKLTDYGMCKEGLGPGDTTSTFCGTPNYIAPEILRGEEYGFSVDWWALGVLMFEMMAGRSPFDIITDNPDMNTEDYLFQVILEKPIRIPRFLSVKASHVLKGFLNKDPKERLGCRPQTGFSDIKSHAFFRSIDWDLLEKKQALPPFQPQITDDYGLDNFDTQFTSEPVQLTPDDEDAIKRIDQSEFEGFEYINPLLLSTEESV
Protocol: as §1

EGFR = molecular target: T9, EGFR (Homo sapiens, UniProt P00533)
T9 construct: purchased ProQinase (Freiburg, Germany)
T9 sequence (P00533 25-1210): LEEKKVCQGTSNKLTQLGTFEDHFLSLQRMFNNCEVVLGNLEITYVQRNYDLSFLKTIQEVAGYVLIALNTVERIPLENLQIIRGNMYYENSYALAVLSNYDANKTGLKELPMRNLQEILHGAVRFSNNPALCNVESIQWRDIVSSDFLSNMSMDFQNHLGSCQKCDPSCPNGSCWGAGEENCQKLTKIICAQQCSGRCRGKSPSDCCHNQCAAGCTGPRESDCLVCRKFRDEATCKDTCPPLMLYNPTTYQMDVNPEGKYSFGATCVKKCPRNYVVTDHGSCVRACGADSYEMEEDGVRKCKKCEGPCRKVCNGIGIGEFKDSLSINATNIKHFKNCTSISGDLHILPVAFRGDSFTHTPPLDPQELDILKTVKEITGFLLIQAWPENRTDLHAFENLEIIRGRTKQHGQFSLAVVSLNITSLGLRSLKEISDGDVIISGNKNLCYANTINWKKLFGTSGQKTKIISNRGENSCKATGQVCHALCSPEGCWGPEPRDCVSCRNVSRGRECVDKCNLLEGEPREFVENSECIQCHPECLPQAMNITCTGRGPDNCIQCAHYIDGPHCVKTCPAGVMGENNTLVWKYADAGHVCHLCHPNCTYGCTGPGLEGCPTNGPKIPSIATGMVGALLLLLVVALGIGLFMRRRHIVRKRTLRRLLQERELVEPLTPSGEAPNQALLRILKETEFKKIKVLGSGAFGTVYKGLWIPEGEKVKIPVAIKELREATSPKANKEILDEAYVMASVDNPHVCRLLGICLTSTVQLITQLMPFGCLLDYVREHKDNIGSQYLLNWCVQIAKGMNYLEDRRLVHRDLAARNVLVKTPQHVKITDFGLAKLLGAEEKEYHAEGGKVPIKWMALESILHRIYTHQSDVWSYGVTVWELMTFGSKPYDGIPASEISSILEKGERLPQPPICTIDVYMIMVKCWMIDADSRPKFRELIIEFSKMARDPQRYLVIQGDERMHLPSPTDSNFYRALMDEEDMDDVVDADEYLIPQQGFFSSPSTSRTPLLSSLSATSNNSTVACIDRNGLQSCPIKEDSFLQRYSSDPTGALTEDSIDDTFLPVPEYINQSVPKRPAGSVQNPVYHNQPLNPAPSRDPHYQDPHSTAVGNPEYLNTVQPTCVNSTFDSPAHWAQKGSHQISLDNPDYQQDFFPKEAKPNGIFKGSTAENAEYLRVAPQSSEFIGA
Protocol: as §1

CDK4/CycD2 = molecular target: T10, CDK4/CycD2 (Homo sapiens, UniProt P11802)
T10 construct: purchased ProQinase (Freiburg, Germany)
Protocol: as §1

BTK = molecular target: T11, BTK (Homo sapiens, UniProt Q06187)
T11 construct: purchased ProQinase (Freiburg, Germany)
Protocol: as §1

CDK1/CycE1 = molecular target: T12, CDK1/CycE1 (Homo sapiens, UniProt P06493)
T12 construct: purchased ProQinase (Freiburg, Germany)
Protocol: as §1

MARK1 = molecular target: T13, MARK1 (Homo sapiens, UniProt Q9P0L2)
T13 construct: purchased ProQinase (Freiburg, Germany)
T13 sequence (Q9P0L2 whole entry): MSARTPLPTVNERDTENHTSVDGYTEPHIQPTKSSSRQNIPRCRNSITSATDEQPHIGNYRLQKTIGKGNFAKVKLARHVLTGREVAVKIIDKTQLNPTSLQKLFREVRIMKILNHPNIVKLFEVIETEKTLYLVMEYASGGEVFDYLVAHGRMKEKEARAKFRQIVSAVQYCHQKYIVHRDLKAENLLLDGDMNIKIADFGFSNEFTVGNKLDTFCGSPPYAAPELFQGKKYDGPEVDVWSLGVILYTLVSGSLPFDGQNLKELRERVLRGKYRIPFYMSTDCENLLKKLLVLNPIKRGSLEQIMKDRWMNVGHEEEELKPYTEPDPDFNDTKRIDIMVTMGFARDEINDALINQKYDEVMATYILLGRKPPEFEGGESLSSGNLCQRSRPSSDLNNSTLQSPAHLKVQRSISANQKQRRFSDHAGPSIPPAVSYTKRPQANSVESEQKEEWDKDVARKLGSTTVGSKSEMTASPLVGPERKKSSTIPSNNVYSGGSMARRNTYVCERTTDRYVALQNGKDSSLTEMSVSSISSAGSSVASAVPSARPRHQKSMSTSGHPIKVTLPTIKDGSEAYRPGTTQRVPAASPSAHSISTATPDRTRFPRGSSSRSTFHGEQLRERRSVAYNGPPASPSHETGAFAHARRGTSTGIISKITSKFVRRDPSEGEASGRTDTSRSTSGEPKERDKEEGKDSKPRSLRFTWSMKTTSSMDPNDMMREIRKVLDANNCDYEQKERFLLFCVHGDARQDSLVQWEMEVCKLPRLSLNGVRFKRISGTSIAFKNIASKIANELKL
Protocol: as §1

T1 sequence (P49336 whole entry): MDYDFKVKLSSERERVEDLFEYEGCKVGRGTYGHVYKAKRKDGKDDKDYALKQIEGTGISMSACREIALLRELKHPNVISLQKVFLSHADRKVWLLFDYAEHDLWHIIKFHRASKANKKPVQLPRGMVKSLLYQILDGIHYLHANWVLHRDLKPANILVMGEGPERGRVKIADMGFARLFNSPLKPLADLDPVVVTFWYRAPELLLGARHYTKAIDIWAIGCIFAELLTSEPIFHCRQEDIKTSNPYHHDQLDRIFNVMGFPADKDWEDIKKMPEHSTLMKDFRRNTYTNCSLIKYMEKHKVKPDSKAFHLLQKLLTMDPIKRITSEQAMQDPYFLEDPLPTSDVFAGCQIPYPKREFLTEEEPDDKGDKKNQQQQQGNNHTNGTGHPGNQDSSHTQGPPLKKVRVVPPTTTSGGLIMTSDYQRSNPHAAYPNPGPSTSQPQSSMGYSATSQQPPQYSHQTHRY
T1 sequence (P24863 whole entry partner): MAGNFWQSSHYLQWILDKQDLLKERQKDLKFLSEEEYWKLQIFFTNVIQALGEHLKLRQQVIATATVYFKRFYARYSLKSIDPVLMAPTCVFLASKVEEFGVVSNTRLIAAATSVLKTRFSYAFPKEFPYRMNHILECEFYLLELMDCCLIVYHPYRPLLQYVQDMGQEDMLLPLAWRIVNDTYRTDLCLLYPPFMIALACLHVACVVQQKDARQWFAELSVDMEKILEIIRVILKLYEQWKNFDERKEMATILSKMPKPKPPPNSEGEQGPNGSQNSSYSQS

Compound	Residual activity (CDK8/CycC; 1.0E-05 M)	Residual activity (CDK8/CycC; 1.0E-06 M)	Residual activity (MET; 1.0E-05 M)	Residual activity (MET; 1.0E-06 M)	Residual activity (PKCbeta1; 1.0E-05 M)	Residual activity (PKCbeta1; 1.0E-06 M)	Residual activity (BMX; 1.0E-05 M)	Residual activity (BMX; 1.0E-06 M)	Residual activity (TBK1; 1.0E-05 M)	Residual activity (TBK1; 1.0E-06 M)	Residual activity (WNK3; 1.0E-05 M)	Residual activity (WNK3; 1.0E-06 M)	Residual activity (SRPK1; 1.0E-05 M)	Residual activity (SRPK1; 1.0E-06 M)	Residual activity (PKMzeta; 1.0E-05 M)	Residual activity (PKMzeta; 1.0E-06 M)	Residual activity (EGFR; 1.0E-05 M)	Residual activity (EGFR; 1.0E-06 M)	Residual activity (CDK4/CycD2; 1.0E-05 M)	Residual activity (CDK4/CycD2; 1.0E-06 M)	other results
O=C(Cc1ccccc1)Nc1ccc(F)c(Nc2ccc3c(c2)CCCCC3=O)c1 [Compound 100]	60 % of control	82 % of control	89 % of control	101 % of control	92 % of control	91 % of control	71 % of control	111 % of control	101 % of control	103 % of control	109 % of control	107 % of control	71 % of control	94 % of control	98 % of control	105 % of control	99 % of control	100 % of control	86 % of control	94 % of control	Residual activity (BTK; 1.0E-05 M): 78 % of control; Residual activity (BTK; 1.0E-06 M): 99 % of control; Residual activity (CDK1/CycE1; 1.0E-05 M): 100 % of control; Residual activity (CDK1/CycE1; 1.0E-06 M): 102 % of control; Residual activity (MARK1; 1.0E-05 M): 90 % of control; Residual activity (MARK1; 1.0E-06 M): 91 % of control
O=C(Nc1ccc(F)c(Nc2ccc3c(c2)CCCCC3=O)c1)c1cccc(F)c1 [Compound 109]	61 % of control	79 % of control	91 % of control	95 % of control	87 % of control	93 % of control	83 % of control	100 % of control	93 % of control	93 % of control	104 % of control	93 % of control	68 % of control	96 % of control	88 % of control	103 % of control	93 % of control	105 % of control	91 % of control	94 % of control	Residual activity (BTK; 1.0E-05 M): 91 % of control; Residual activity (BTK; 1.0E-06 M): 99 % of control; Residual activity (CDK1/CycE1; 1.0E-05 M): 98 % of control; Residual activity (CDK1/CycE1; 1.0E-06 M): 96 % of control; Residual activity (MARK1; 1.0E-05 M): 99 % of control; Residual activity (MARK1; 1.0E-06 M): 87 % of control
